Here are results for two compounds from US20070212355A1 (priority 2005, published 2007).

For data set [1] the following is noted: humans; cited from earlier work.
The nature of data set [2]: SEC-SLS self-association of peptides in PBS (pH 7.5). It is filed as physicochemical. How it is done:
The self-association poses a challenge to the development and manufacturing of a homogeneous therapeutic.
Solution molecular weight of the peptides was measured by SEC-SLS. Briefly, peptide solutions in PBS (pH 7.5) at 0.4 to 2.0 mg/mL were fractionated over a Superdex peptide column (Amersham Pharmacia). The eluted peaks were monitored by static light scattering at 690 nm and solution molecular weight was determined at UV 280 nm using the Astra software package (Wyatt Inc.).

Data set [3] in a line: CD spectra secondary structure of peptides. It is filed as physicochemical. The following applies: 0.2 mg/mL in PBS, 25° C. How it is done: The secondary structures of tested peptides were determined using 0.2 mg/mL peptide solutions in PBS. Briefly, CD spectra were collected in triplicate at 1 nm intervals at 25° C. in 0.1 cm path length cell. Secondary structures were determined by fitting of the CD spectra using CD spectra software (CD Spectra Deconvolution software 2.1). All tested peptides contained peaks corresponding to the presence of alpha helices.

Data set [4] is described as follows: Helical propensity analysis using TFE (CD at 222 nm). It is filed as physicochemical. The following applies: 0.2 mg/mL in PBS (pH 7.5), MRE at 222 nm. How it is done: In addition, trifluoroethanol (TFE) is known to induce helix formation in peptides (Soennichsen et al., Biochemistry 31: 8791 (1992)). Accordingly, helical propensity analysis using TFE was performed. Briefly, tested peptides were diluted to 0.2 mg/mL in PBS (pH 7.5) containing 0, 1, 5, 15, 33 or 50% TFE. CD spectra were collected and CD plots were generated after data averaging, buffer subtraction and curve smoothing. Helical propensity values were obtained from mean residue ellipticity (MRE) at 222 nm versus % TFE plots. The concentration of TFE that effected a 50% transformation of the CD spectrum at 222 nm was used as a measure of helical propensity.

In the next data set the target is T1, mutated human GLP-2R (Homo sapiens, UniProt O95838, E512D/G511A/L513V).
T1 construct: expressed in transfected cells; host or cells: HEK 293E clonal cell line
T1 sequence (O95838 1-553 G511A/E512D/L513V): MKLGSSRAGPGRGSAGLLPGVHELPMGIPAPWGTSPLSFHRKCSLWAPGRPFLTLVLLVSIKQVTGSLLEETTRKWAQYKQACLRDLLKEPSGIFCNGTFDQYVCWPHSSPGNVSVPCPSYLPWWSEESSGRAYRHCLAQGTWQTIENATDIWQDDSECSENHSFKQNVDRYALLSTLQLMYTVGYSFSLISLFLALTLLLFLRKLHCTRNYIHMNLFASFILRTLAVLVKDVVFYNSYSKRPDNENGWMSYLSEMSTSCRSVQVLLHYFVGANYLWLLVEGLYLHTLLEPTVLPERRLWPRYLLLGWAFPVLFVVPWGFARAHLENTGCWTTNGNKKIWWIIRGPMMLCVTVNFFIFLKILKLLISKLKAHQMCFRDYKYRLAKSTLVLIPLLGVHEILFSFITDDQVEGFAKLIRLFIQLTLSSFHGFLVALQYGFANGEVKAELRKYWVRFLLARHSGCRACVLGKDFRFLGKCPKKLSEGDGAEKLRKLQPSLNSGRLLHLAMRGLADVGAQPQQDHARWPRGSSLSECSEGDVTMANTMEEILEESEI
As to the kind of experiment: cAMP expression assay in HEK 293E clonal cell line expressing mutated human GLP-2R. It is filed as cell-based. The following applies: assay set-up, vs control peptide. An excerpt:
To achieve this goal, a clonal cell line expressing a mutated human GLP-2R was generated by transfecting HEK 293E cells. The mutated human GLP-2R differs from the wild-type human GLP-2R (SEQ ID NO: 35) at three amino acid positions within the C-terminal intracellular region (SEQ ID NO: 36).
The cAMP expression was quantitated using the cAMP Direct Screen System (Cat. No. CSD 200, Applied Biosystems, Bedford, Mass.).
This assay was based on the cAMP Direct Screen System from Applied Biosystems utilizing a cell line expressing mutated huGLP-2R in HEK 293E cells. Peptide at concentrations ranging from 0.01 nM to 1.0 uM in PBS with 0.5% BSA was added to ˜50,000 cells suspended in 96-well plates. After a 30-minute incubation at 37° C., Lysis Buffer followed by luminescence reagents (Applied Biosystems) was added according to the manufacturers' procedures (Applied Biosystems Luminescence protocol: cAMP-Screen Direct System). Luminescence was quantitated using a TopCount liquid scintillation analyzer (PerkinElmer), and data was processed using Softmax software (Molecular Devices Corporation).

Data set [5] can be described thus: SEC-SLS analysis of mimetibodies (monomer/dimer). It is filed as physicochemical. The following applies: purified from HEK 293E/HEK 293 expression.
The subject of data set [6] is mice. As to the kind of experiment: Upper gastrointestinal transit, FITC-dextran method, normal mice. In kind it is in vivo. The following applies: for upper gastrointestinal transit (FITC-dextran): single 4 mg/kg dose 4 days prior, FIG. 4, 4 mg/kg. How it is done: On the day of study, upper gastrointestinal transit was measured using the FITC-dextran method. This method provides both, a measure of gastrointestinal transit and a readout of the pattern of distribution of the test meal along the gastrointestinal tract. Mice were fed a test meal of […] of FITC-dextran solution (5 mg/ml of 70,000 molecular weight dextran conjugated to fluorescein-isothiocyanate in 0.5% methylcellulose/deionized water) administered intragastrically by an 18 gauge curved feeding tube. Following oral administration of the FITC-dextran test meal, mice were returned to their home cages. It was shown that a 30 min test period was the optimum duration for detecting accelerated transit, while a 45 min test period was optimum for detecting delayed transit. Following the appropriate test period, mice were sacrificed by carbon dioxide exposure. The entire gastrointestinal tract from the lower esophageal sphincter to the terminal colon was removed. The bowel segments were opened along the mesenteric border. The tissue and luminal contents of the stomach, 10 equal segments of small intestine, the cecum, and 3 equal segments of colon were placed in individual Eppendorf tubes containing 1 ml of PBS. The tissue was vigorously mixed on a table-top vortex, and solid materials were pelleted by centrifugation. Aliquots of the cleared supernatant were read in duplicate on a 96-well fluorescence plate reader to quantify the magnitude of the fluorescent signal in each segment of bowel. These values were used to calculate the Geometric Center (GC), which is defined as the weighted average distribution of the fluorescent signal along the gastrointestinal tract: GC=Σ(% of total fluorescent signal per segment×segment number)/100. Higher values represent faster rates of transit on scale of 1 to 15. […] The mimetibody-induced shift in the distribution pattern of FITC-dextran is shown in the upper panel. […] The GC is calculated in the lower panel for statistical comparison.

A short description of data set [7]: Pharmacokinetics in CD1 mice, TRF assay of active mimetibody. It is filed as in vivo. From the text:
Blood was collected at different time points into citrate buffer containing protease inhibitors to minimize the possibility of ex vivo degradation and plasma was separated by centrifugation.
(§1) A time resolved fluorescence (TRF) assay was used to measure active mimetibody. Active mimetibody reflects the intact N-terminus of the peptide still attached to the Fc region of the mimetibody.

Data set [8] is described as follows: Pharmacokinetics in cynomolgus monkeys, TRF assay. The following applies: 1 mg/kg intravenously. In kind it is in vivo.
Description: as §1

Data set [9] deals with mice. The data set can be described thus: Pharmacodynamics: dosing-regimen study, intestinal weights, 11 days. It is filed as in vivo. An excerpt:
(§2) Specifically, 4 cm sections were harvested: (1) immediately distal to the pylorus (duodenum), (2) starting 2 cm distal of the ligament of Treitz (jejunum), and (3) immediately proximal to the cecum (ileum). The remaining small intestine from ˜6 cm distal of the ligament of Treitz to 4 cm proximal to the cecum was used to prepare mucosal scrapings. From the proximal and distal ends of the remnant, an equal distance was removed until a 15 cm section remained, the remnant was cut longitudinally, rinsed, and the mucosal layer was removed using the short end of a glass microscope slide. The wet weight of the intact intestinal segments and mucosa was measured.
The duration of the study was 11 days and tissue was processed as described in Example 4.

A further data set concerns CD1 mice. As to the kind of experiment: Mucosal wet weight of small intestine after 10 daily subcutaneous injections. In kind it is in vivo.
Description: Afterwards, the mice were euthanized and the small intestines were removed, flushed with saline, and processed as described below.
as §2

On to `CC[C@H](C)[C@H](NC(=O)[C@H](Cc1ccccc1)NC(=O)[C@H](CC(=O)O)NC(=O)[C@H](CCCNC(=N)N)NC(=O)[C@H](C)NC(=O)[C@H](C)NC(=O)[C@H](CC(C)C)NC(=O)[C@H](CC(N)=O)NC(=O)[C@H](CC(=O)O)NC(=O)[C@H](CC(C)C)NC(=O)[C@@H](NC(=O)[C@@H](NC(=O)[C@H](CC(N)=O)NC(=O)[C@H](CCSC)NC(=O)[C@H](CCC(=O)O)NC(=O)[C@H](CC(=O)O)NC(=O)[C@H](CO)NC(=O)[C@H](Cc1ccccc1)NC(=O)[C@H](CO)NC(=O)CNC(=O)[C@H](CC(=O)O)NC(=O)[C@H](C)NC(=O)[C@@H](N)Cc1c[nH]cn1)[C@@H](C)O)[C@@H](C)CC)C(=O)N[C@@H](CC(N)=O)C(=O)N[C@@H](Cc1c[nH]c2ccccc12)C(=O)N[C@@H](CC(C)C)C(=O)N[C@H](C(=O)N[C@@H](CCC(N)=O)C(=O)N[C@H](C(=O)N[C@@H](CCCCN)C(=O)N[C@H](C(=O)N[C@H](C(=O)N[C@@H](CC(=O)O)C(=O)O)[C@@H](C)O)[C@@H](C)CC)[C@@H](C)O)[C@@H](C)CC` [SEQ ID NO: 1], for which the reported half-life in data set [1] is 7.2 ± 2 min. The self-association state result in data set [2] (0.4 mg/mL) was “monomer”. In data set [2] (1 mg/ml), the “SEC-SLS elution / self-association state” value is “overlapping dimer and monomer peaks”. Also, in data set [2] (2 mg/mL), the proportion of monomers result is given as “about 20%” and the “proportion of reversibly self-associated dimer” value was “about 80%”. In addition, in data set [3], the “Helix (percentage of helical structure)” value is given as 19.6% and the “Random coil (percentage)” value is given as 37.9%. Also, the “TFE required for helical transformation (helical propensity)” value in data set [4] is about 16 % TFE. The “stimulation of cAMP expression” value at mutated human GLP-2R is “stimulated cAMP expression”.
For “SEQ ID NO: 5: A2G GLP-2 IgG4 mimetibody; core HGDGSFSDEMNTILDNLAARDFINWLIQTKITDGSGGGSGTLVTVSSESKYGPPCPPCP”, the “SEC-SLS association state of mimetibody” value in data set [5] was “dimer”. In addition, the “upper gastrointestinal transit (FITC-dextran)” value was “significant acceleration of intestinal transit” in the data set on mice [6] (listed as A2G GLP-2 mimetibody) and “acceleration of upper gastrointestinal transit” with mice [6] (listed as GLP-2 mimetibody). In addition, the “Geometric Center (GC) of FITC-dextran” value in the data set with mice [6] (single injection 4 days prior, 30 minute test, scale 1 to 15, normal mice GC=6) was 7.5. Further, the calculated half-life in data set [7] (CD1 mice, 3 mg/kg intravenously or subcutaneously, TRF) was 26.5 h; in data set [8], 115 h. Besides, in [7] (mimetibody in mice vs reported GLP-2 peptide in humans), the “half-life relative to GLP-2 peptide” value is “more than 200 fold”. Further, the “mucosal weight difference to control mimetibody” value with mice [9] (4 mg/kg every day or every other day, 11 day study, compared with once per week) is reported as “more pronounced”. Besides, in the data set with mice [9] (4 mg/kg once per week, 11 day study), the “mucosal weight compared to control mimetibody” value is on record as “significantly increased mucosal weight”. Also, in the data set on mice [9] (4 mg/kg, all regimens except for the single dose experiment), the “duodenum and jejunum section wet weight over control mimetibody” value was “significant increase in weight”. The “increase in mucosal wet weight vs control mimetibody” value in the data set with CD1 mice (0.8 mg/kg (0.26 nmole) daily s.c. 10 days, p<0.0001) is “statistically significant”; with CD1 mice (8 mg/kg (2.6 nmole) daily s.c. 10 days, p<0.0004), “statistically significant”. In addition, in the data set on CD1 mice (daily s.c. 10 days, female CD1 mice, FIG. 2), the “mucosal wet weight (15 cm segment between jejunum and ileum), dose response” value is recorded as “dose dependent increase”. Moreover, the “effective in vivo dose lower than that of A2G GLP-2 peptide (molar basis)” value with CD1 mice (mucosal weight model) is listed as 50 fold.
